Data set [1] in a line: Metabolic stability in human liver microsomes (HLM). The arrangement: microsomal CLint / half-life: dose or concentration left out as unconfirmed. (Liver microsomes are a subcellular fraction often used to study metabolism.)
The nature of data set [2]: Plasma pharmacokinetics in mice after subcutaneous administration. Type of data set: in vivo, male C57BL/6 mice. The settings on record: SC 10 mg/kg. An excerpt:
Animals. […] Four mice were housed in each cage. […] All animals were provided laboratory rodent diet. […] Animals were randomly assigned to treatment groups.

Data set [3] concerns the target T1, 5-HT2A (Homo sapiens, UniProt P28223). Description: FLIPR Ca2+ flux agonist assay at 5-HT2A. Type of data set: cell-based. The arrangement: host or cells: HEK293. The conditions noted are these: Ca2+ flux, HEK293; read-out: 5-HT2A EC50. As to the method:
(§1) A solution of 250 mM probenecid in 1 mL FLIPR assay buffer was prepared fresh. This was combined with a fluorescent dye (Fluo-4 Direct™) to make a final assay concentration of 2.5 mM. […] The fluorescent dye was then added to the assay plate along with assay buffer to a final volume of 40 μL. The cell plate was incubated for 50 min at 37° C. and 5% CO2 and placed into the FLIPR Tetra along with the compound plate. 10 μL of references and compounds were then transferred from the compound plate into the cell plate and the fluorescent signal was read.

Data set [4] can be described thus: Stability in rat brain homogenate. Type of data set: in vitro ADME, male Sprague Dawley rats.
Data set [5] can be described thus: Stability in mouse brain homogenate. Type of data set: in vitro ADME, male CD-1 mice.
For data set [6], the target named is T1, 5-HT2A. The data set can be described thus: 5-HT2A receptor radioligand binding ([3H]ketanserin). As to the method:
The binding affinities of disclosed compounds at the ketanserin binding site of the 5-HT2A receptor were determined in radioligand binding experiments.
Method. Affinity of the test compounds for the 5-HT2A receptor was determined in radioligand binding experiments with [^3H]ketanserin by WuXi AppTec (Hong Kong) Limited, using methods adapted from the literature and under conditions described in Table 4.

In the next data set the target is T2, 5-HT1A (Homo sapiens, UniProt P08908).
T2 construct: host or cells: CHO cells
T2 sequence (P08908 1-422): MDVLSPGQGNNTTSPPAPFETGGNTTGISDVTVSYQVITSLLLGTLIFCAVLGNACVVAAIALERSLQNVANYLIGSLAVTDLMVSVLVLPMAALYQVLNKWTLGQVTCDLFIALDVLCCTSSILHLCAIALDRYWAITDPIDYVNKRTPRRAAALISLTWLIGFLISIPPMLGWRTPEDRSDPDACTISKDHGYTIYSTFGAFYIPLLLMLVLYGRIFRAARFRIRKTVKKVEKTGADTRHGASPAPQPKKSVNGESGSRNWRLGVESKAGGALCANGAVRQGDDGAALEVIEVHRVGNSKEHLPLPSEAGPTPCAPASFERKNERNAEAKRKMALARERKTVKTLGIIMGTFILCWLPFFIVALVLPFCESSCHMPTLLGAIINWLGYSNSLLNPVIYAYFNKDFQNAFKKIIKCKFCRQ
Description: FLIPR Ca2+ flux agonist assay at 5-HT1A. Type of data set: cell-based. (Calcium assays in cells follow changes in intracellular calcium, usually with a dye or a luminescent sensor.)

The target of the next data set is T3, 5-HT2B (Homo sapiens, UniProt P41595).
T3 construct: host or cells: HEK293
T3 sequence (P41595 whole entry, species assumed): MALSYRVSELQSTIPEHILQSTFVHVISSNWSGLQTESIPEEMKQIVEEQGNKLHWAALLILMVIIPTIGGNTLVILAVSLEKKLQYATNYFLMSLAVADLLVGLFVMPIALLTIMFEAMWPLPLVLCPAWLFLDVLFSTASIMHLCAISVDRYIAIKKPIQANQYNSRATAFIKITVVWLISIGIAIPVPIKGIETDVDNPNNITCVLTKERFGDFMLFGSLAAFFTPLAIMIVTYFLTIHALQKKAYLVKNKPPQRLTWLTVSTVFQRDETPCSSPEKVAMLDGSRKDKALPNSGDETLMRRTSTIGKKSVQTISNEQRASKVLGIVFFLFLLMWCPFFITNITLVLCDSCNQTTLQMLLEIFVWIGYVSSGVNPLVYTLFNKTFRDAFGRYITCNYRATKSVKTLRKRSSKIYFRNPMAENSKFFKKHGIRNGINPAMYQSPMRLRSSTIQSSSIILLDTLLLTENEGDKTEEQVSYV
Description: FLIPR Ca2+ flux agonist assay at 5-HT2B. Type of data set: cell-based. The settings on record: Ca2+ flux; for 5-HT2B % Act @ Max Dose: HEK293, max dose. How it is done:
as §1

In a further data set the test system is rat synaptosomes. The data set can be described thus: Serotonin (5-HT) release from rat synaptosomes. The settings on record: for pEC50: rat synaptosomes preloaded with [3H]5-HT; for % Release @ Max Dose (10 μM): rat synaptosomes. Type of data set: biochemical, Male Sprague-Dawley rats. As to the method: Disclosed compounds were assessed for their ability to release serotonin (5-HT) from […] (Table 9). Potency and efficacy for 5-HT release varied substantially depending on the specific compound. […] However, there was also substantial variability among 4-hydroxy compounds.
Synaptosome 5-HT Release Assay. Synaptosome release assays were conducted according to modifications of previously described procedures (Partilla et al. (2016). Interrogating the Activity of Ligands at Monoamine Transporters in Rat Brain Synaptosomes. In Neurotransmitter Transporters (pp. 41-52). Springer.). Briefly, synaptosomes were prepared from rat brains. Male Sprague-Dawley rats were rendered unconscious with CO2 and their brains were immediately removed. The cerebella were discarded and the whole brains (minus striatum) were placed in ice-cold 0.32 M sucrose (10 mL per brain) and gently homogenized by hand. The homogenate of each brain was centrifuged at 1,000×g at 4° C. for 10 mins and the resulting supernatant was diluted with ice-cold 0.32 M sucrose to a total volume of 10 mL to provide the synaptosome solution. Synaptosomes were then preloaded with 5 nM [^3H]5-HT in the presence of selective uptake inhibitors of DAT (50 nM GBR12935), NET (100 nM nomifensine), and VMAT2 (1 μM reserpine) in Krebs phosphate buffer (KPB). The incubations were allowed to reach equilibrium for 2 h at 25° C. For the release reactions, 425 μL of preloaded synaptosomes were added to test tubes containing 75 μL of test drugs diluted in KPB containing 1 mg/mL BSA. After 10 mins, the release reaction was stopped using a cell harvester by rapid vacuum filtration over GF/B filter paper presoaked in wash buffer (10 mM Tris-HCl, pH 7.4, 150 mM NaCl) and the filters were washed with additional wash buffer. Filters were dried for 1 h at 60° C. and retained radioactivity was quantified using a MicroBeta 2 liquid scintillation counter. The amount of retained radioactivity was inversely proportional to the extent of release.

In data set [7] the test system is monoamine oxidase A and B (MAO-A and MAO-B). Description: Stability in the presence of monoamine oxidases (human liver mitochondria preparation). The arrangement: half-life / microsomal CLint: dose or concentration left out as unconfirmed. The settings on record: for stability in the presence of MAO (in words): human liver mitochondria preparation; for CLint(MAO) / t1/2: human liver mitochondria 0.30 mg protein/mL, 37° C. How it is done:
Liver Mitochondria Incubations. Human liver mitochondria (Xenotech H0610.M) were used.

The target of the next data set is T4, 5-HT2C receptor (Homo sapiens, UniProt P28335).
T4 sequence (P28335 33-458): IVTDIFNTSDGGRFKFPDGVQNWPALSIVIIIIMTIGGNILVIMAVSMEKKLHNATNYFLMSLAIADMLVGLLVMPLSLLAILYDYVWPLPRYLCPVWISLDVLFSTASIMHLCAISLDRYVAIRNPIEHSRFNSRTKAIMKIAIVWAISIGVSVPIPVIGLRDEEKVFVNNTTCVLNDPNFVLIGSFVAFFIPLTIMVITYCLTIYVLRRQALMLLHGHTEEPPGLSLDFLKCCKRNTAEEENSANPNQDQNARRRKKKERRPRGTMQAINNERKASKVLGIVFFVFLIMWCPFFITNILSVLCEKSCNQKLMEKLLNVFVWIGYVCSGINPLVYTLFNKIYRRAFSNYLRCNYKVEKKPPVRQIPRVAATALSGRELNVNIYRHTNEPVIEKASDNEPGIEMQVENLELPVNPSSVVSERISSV
Description: cell-based. The conditions noted are these: Ca2+ flux. Type of data set: cell-based.

Setting [8] is: both, human, pooled human liver microsomes, pH 7.4.
Where [9] appears, read: mouse, plasma, male C57BL/6 mice.
The mark [10] stands for this setting: rat brain homogenate, 1 μM, 37° C.
Where [11] appears, read: mouse brain homogenate, 1 μM, 37° C.
The mark [12] stands for this setting: human, human liver mitochondria, pH 7.4.
Setting [13] is: HLM 0.50 mg protein/mL, NADPH, 37° C., 60 minutes.

pEC50, pKi: −log10 of the molar value. Like-named read-outs stand apart in the source and are kept apart here.

The half-life is how long it takes for the measured level to halve. The microsomal CLint is a measure of how fast metabolising enzymes remove a compound, apart from limits set by blood flow. In general, AUC(0-t) refers to the area under the concentration-time curve up to a stated or last time point. The Cmax is the maximum level reached in the sampled fluid or tissue. By Tmax is commonly meant the time from dosing to the highest level. The pEC50 is the EC50 on a negative log10 scale, so that one unit is a factor of ten. A word on the pKi: it is the negative decadic logarithm of the Ki, by convention in mol/L.

T1 sequence (P28223 whole entry): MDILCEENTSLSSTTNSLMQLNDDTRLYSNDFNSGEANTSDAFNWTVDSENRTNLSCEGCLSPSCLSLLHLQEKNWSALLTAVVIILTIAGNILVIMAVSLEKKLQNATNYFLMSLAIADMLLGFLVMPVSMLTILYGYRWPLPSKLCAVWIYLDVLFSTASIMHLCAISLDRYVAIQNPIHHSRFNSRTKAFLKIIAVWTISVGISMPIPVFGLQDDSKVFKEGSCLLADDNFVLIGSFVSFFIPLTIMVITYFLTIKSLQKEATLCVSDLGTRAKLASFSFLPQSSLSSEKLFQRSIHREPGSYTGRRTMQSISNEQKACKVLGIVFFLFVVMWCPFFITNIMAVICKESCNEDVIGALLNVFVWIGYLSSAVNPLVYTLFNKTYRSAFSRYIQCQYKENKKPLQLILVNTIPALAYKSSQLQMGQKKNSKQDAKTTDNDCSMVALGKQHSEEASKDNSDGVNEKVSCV

For `Oc1cccc2[nH]cc(CCNC3CC3)c12` [Compound 4, 3-(2-(cyclopropylamino)ethyl)-1H-indol-4-ol], the half-life in [1] (setting [8]) was 1.36 h; in data set [2] (setting [9]), 0.62 h; in data set [7] (setting [12]), 1.91 h. Also, the figures for the microsomal CLint in [1] (setting [8]) and in [7] (setting [12]) were 17 µL/min/mg and 20.2 µL/min/mg, respectively. In data set [2] (mice), the “peak plasma concentration compared with 5-F-DMT (in words)” value was “much higher peak concentrations than 5-F-DMT”. The compound further registered an AUC(0-t) in [2] (setting [9]) of 665 ng·h/mL. For the same compound, the Cmax in data set [2] (setting [9]) amounted to 1220 ng/mL. For the same compound, the Tmax in data set [2] (mouse, plasma, male C57BL/6 mice, read-out: Tmax) was found to be 0.25 h. Also, the pEC50 at 5-HT2A [3] was 8.06; on 5-HT1A, 5.18; in the data set on rat synaptosomes it was 5.90. Also, the “stability in rat brain homogenate (in words)” value in data set [4] is recorded as “intermediate stability”. The half-life at 1 µM in data set [4] (male, Sprague Dawley, rat brain homogenate, 1 μM, 37° C.) was 1.05 h; in [5] (male, CD-1, mouse brain homogenate, 1 μM, 37° C.), 0.883 h. The “% Compound Remaining (after 120 min)” value in data set [4] (setting [10]) was determined as 25.2%; in data set [5] (setting [11]), 19.4%. The “stability in mouse brain homogenate (in words)” value in data set [5] was “intermediate stability”. The same compound gave a pKi at 5-HT2A [6] of 6.47. Also, at 5-HT1A (Ca2+ flux, CHO cells), the “5-HT1A % Act @ Max Dose” value is recorded as 58.72%. For the same compound, at 5-HT2B, the “agonism at 5-HT2B (in words)” value was “did not”. The “5-HT2B % Act @ Max Dose” value at 5-HT2B was 4.08%. Also, the “% Release @ Max Dose (10 μM)” value in the data set on rat synaptosomes stood at 38.87%. Besides, in data set [7], the “stability in the presence of MAO (in words)” value (“stability in the presence” for short) is given as “intermediate stability”. In [7] (human liver mitochondria), the “Remaining (t = 60 min)” value is recorded as 72.7%.

Consider `CCN(C)CCc1c[nH]c2cccc(O)c12` [Compound 4-HO-MET, reference compound], for which, in [1] (setting [13]), the “Clint” value was <9.6 µL/min/mg and the “t1/2” value was >2.42 h. In data set [2] (setting [9]), this compound yielded an exposure AUC(0-t) of 1410 ng·h/mL and a Cmax of 1160 ng/mL. In data set [2] (plasma, male C57BL/6 mice), the Tmax came to 0.08 h and the t1/2 is on record as 1.1 h. For the same compound, in data set [4] (setting [10]), the t1/2 is 0.883 h and the “% Compound Remaining (after 120 min)” value turned out to be 20.9%. Further, in [5] (setting [11]), the t1/2 is 0.763 h and the “% Compound Remaining (after 120 min)” value is listed as 16.7%. The “5-HT2B % Act @ Max Dose” value at 5-HT2B amounted to 1.1%. In addition, in the data set with rat synaptosomes, the pEC50 is 6.30 and the “% Release @ Max Dose (10 μM)” value is 56.9%. Besides, in data set [7], the “CLint(MAO)” value was <15.9 µL/min/mg, the t1/2 is >2.42 h and the “stability in the presence” value is “stable”. Moreover, in data set [7] (human liver mitochondria), the “Remaining (t = 60 min)” value was 112.3%. On 5-HT2C receptor, the pEC50 was 7.42 and the “5-HT2C % Act @ Max Dose” value worked out at 95.0%.

Turning to `CCCN(CC)CCc1c[nH]c2ccccc12` [EPT, N-ethyl-N-propyltryptamine, reference compound], the pEC50 on 5-HT2A [3] is 7.52. For the same compound, the “5-HT1A % Act @ Max Dose” value at 5-HT1A (Ca2+ flux, CHO cells) turned out to be 75.5%. Further, the negative logarithm of the EC50 (pEC50) on 5-HT1A (Ca2+ flux, CHO cells, ND = not determined due to lack of measurable agonism, read-out: 5-HT1A EC50) is 4.05. For the same compound, the “5-HT2B % Act @ Max Dose” value at 5-HT2B is reported as 80.4%. Besides, on 5-HT2B (HEK293, ND = not determined due to lack of measurable agonism, read-out: 5-HT2B EC50), the pEC50 was 7.39. Besides, in the data set on rat synaptosomes, the pEC50 is 6.58 and the “% Release @ Max Dose (10 μM)” value turned out to be 45.02%. In [7], the “CLint(MAO)” value is <15.9 µL/min/mg, the t1/2 was >2.42 h and the “stability in the presence” value was “more stable”. Besides, in data set [7] (human liver mitochondria), the “Remaining (t = 60 min)” value came to 95.1%. Besides, on 5-HT2C receptor, the pEC50 was 7.48 and the “5-HT2C % Act @ Max Dose” value is listed as 90.8%.

With `CCN(C)CCc1c[nH]c2ccccc12` [MET, N-methyl-N-ethyltryptamine, reference compound], the pEC50 at 5-HT2A [3] was 7.77; at 5-HT1A it was 4.24; in the data set with rat synaptosomes, 6.74; at 5-HT2C receptor it was 7.55. In addition, the pKi on 5-HT2A [6] was 6.89. For the same compound, on 5-HT1A (Ca2+ flux, CHO cells), the “5-HT1A % Act @ Max Dose” value stood at 71.4%. For the same compound, the “5-HT2B % Act @ Max Dose” value on 5-HT2B worked out at 11.9%. Moreover, the “% Release @ Max Dose (10 μM)” value in the data set with rat synaptosomes is on record as 71.00%. The “CLint(MAO)” value in data set [7] was <15.9 µL/min/mg. In data set [7], the t1/2 is >2.42 h. Besides, in [7], the “stability in the presence” value is recorded as “more stable”. The “Remaining (t = 60 min)” value in data set [7] (human liver mitochondria) was 84.5%.

The values are drawn from patent US20260234107A1, “TRYPTAMINES AND METHODS OF TREATING MOOD DISORDERS” (priority 2022, published 2026).
